In patent publication US8796253B2, “Heteroaryl substituted pyrazole derivatives useful for treating hyper-proliferative disorders and diseases associated with angiogenesis” (Bayer Intellectual Property GmbH, priority 2007, dated 2014):

These molecules were tested on HCT-116 cells stably transfected with a Luciferase reporter gene under the control of HIF-responsive element (assay: HIF-Luciferase Assay). Settings: Homo sapiens, HCT-116, HIF-Luciferase Assay, HCT-116 reporter cells, overnight at 1% oxygen; group >10, unit inferred.
Assay type: cell-based
Procedure: HCT-116 cells stably transfected with a Luciferase reporter gene under the control of HIF-responsive element were plated in white 96- or 384-well plates at 30,000 or 5,000 cells/well, respectively, in 50 μL/well media (RPMI with 10% fetal bovine serum and 100 μg/mL Hygromycin). Cells were incubated overnight at 37° C. in a humidified incubator containing 5% CO2 under normal oxygen. The next day test compounds were added to the wells at various concentrations (0-10 μM, 0.1% final DMSO concentration) and placed in a hypoxic chamber overnight at 1% oxygen. Following the exposure to hypoxic conditions, 50 μL/well of Bright Glo reagent (Promega, Wisconsin, USA) was added to the wells and luminescence was measured after 5 min. Cells incubated under normal oxygen levels were used as background control. […] Compounds that have IC50 values between 1 μM and 10 μM include those of Examples 8, 16, 38, 39, 40, 41, 42, 43, 47, 48, 53, 54, 56, 57, 66, 69, and 72.

Compound | IC50 [nM]
Cc1ccc(Cn2nc(C3=NC(C(C)C)CO3)cc2C)cc1 (centres unmarked) [Example 71, 4-isopropyl-2-[5-methyl-1-(4-methylbenzyl)-1H-pyrazol-3-yl]-4,5-dihydro-1,3-oxazole] | > 10000

Same assay, conditions: Homo sapiens, HCT-116, HIF-Luciferase Assay, HCT-116 reporter cells, overnight at 1% oxygen; individual values

Compound | IC50 [nM]
Cc1ccc(Cn2nc(-c3nc(-c4ccc(C5CCCCC5)cc4)co3)cc2C)cc1 [Example 81, 4-(4-Cyclohex-1-ylphenyl)-2-[5-methyl-1-(4-methylbenzyl)-1H-pyrazol-3-yl]-1,3-oxazole] | 50

Same assay, conditions: Homo sapiens, HCT-116, HIF-Luciferase Assay, HCT-116 reporter cells, overnight at 1% oxygen; potency groups

Compound | IC50 [nM]
Cc1ccc(Cn2nc(-c3nc4cc5c(cc4[nH]3)OC(F)(F)O5)cc2C)cc1 [Example 55, 2,2-difluoro-6-[5-methyl-1-(4-methylbenzyl)-1H-pyrazol-3-yl]-5H-[1,3]dioxolo[4,5-f]benzimidazole] | ≤ 1000
Cc1ccc(Cn2nc(-c3nc(-c4cccnc4)no3)cc2C)cc1 [Example 16, 3-{5-[5-methyl-1-(4-methylbenzyl)-1H-pyrazol-3-yl]-1,2,4-oxadiazol-3-yl}pyridine] | 1000 to 10000
Cc1ccc(Cn2nc(-c3nc4cc5oc6ccccc6c5cc4[nH]3)cc2C)cc1 [Example 52, 2-[5-methyl-1-(4-methylbenzyl)-1H-pyrazol-3-yl]-1H-[1]benzofuro[2,3-f]benzimidazole] | ≤ 1000
Cc1ccc(Cn2nc(C3=NC(c4ccccc4)CO3)cc2C)cc1 (centres unmarked) [Example 69, 2-[5-Methyl-1-(4-methylbenzyl)-1H-pyrazol-3-yl]-4-phenyl-4,5-dihydro-1,3-oxazole] | 1000 to 10000
Cc1ccc(Cn2nc(-c3nc4ccc(C(C)(C)C)cc4[nH]3)cc2C)cc1 [Example 43, 6-tert-butyl-2-[5-methyl-1-(4-methylbenzyl)-1H-pyrazol-3-yl]-1H-benzimidazole] | 1000 to 10000
Cc1ccc(Cn2nc(-c3nc4ccc(C(F)(F)F)cc4[nH]3)cc2C)cc1 [Example 44, 2-[5-methyl-1-(4-methylbenzyl)-1H-pyrazol-3-yl]-6-(trifluoromethyl)-1H-benzimidazole] | ≤ 1000
Cc1ccc(Cn2nc(-c3nc4cc(Cl)c(F)cc4[nH]3)cc2C)cc1 [Example 56, 5-chloro-6-fluoro-2-[5-methyl-1-(4-methylbenzyl)-1H-pyrazol-3-yl]-1H-benzimidazole] | 1000 to 10000
Cc1ccc(Cn2nc(-c3nc(-c4ccc(F)cc4)no3)cc2C)cc1 [Example 10, 3-(4-fluorophenyl)-5-[5-methyl-1-(4-methylbenzyl)-1H-pyrazol-3-yl]-1,2,4-oxadiazole] | ≤ 1000
Cc1ccc(Cn2nc(-c3nc(-c4ccc(OC(C)C)cc4)no3)cc2C)cc1 [Example 20, 3-(4-Isopropoxyphenyl)-5-[5-methyl-1-(4-methylbenzyl)-1H-pyrazol-3-yl]-1,2,4-oxadiazole] | ≤ 1000
